This note sets out measurements from ChEMBL document CHEMBL1201862, “PubChem BioAssay data set” (2004).

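Step 1: Grow cells in 96-well plates. Step 2: Expose to compound for 48 hours at 5 concentrations. Step 3: Interpolate endpoints linearly; if unreached, use highest concentration. Here, GI50 denotes the concentration required for 50% inhibition of growth.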 The source made the active and inactive calls. Rule as the data show it: active = GI50 up to about 1.1 µM and inactive = higher.

Holding throughout (assay): NCI-60 cell line screen, 48 h
Assay [1] concerns A549.
Assay [2] deals with SK-MEL-5.
Assay [3] concerns HCT-116.
Assay [4] concerns TK-10.
Assay [5] deals with SF-295.
Assay [6] concerns SN12C.
Assay [7] concerns NCI-H23.
In assay [8] the test system is Malme-3M.
Assay [9] has as its system RXF 393.
Assay [10] deals with LOX IMVI.
Assay [11] deals with EKVX.
Assay [12] deals with SK-MEL-28.
In assay [13] the test system is OVCAR-5.
For assay [14], the system named is NCI-H226.
Assay [15] deals with 786-0.
Assay [16] relates to HT-29.
Assay [17] concerns HCC 2998.
Assay [18] deals with SF-539.
Assay [19] deals with OVCAR-8.

`Cc1ccc(S(=O)OCc2c(C)c(C)c(COS(=O)c3ccc(C)cc3)c(C)c2C)cc1` (configuration not stated): the GI50 in [1], in assay [2], in [3], in [4], in assay [5] and in [6] was > 100 µM (inactive) in each case. For the same molecule, the GI50 in [7], in assay [8], in assay [9], in assay [10], in assay [11] and in assay [12] was > 100 µM (inactive) throughout. Further, the GI50 in [13], in assay [14], in assay [15], in [16], in assay [17] and in assay [18] was > 100 µM (inactive) throughout. In addition, in assay [19], the GI50 was > 100 µM (inactive).
On to `Cc1ccc(NC(=O)C(=O)Cc2cc[n+]([O-])cc2)cc1`, for which the GI50 in assay [1], in assay [2], in [3], in assay [4], in [5] and in [6] was > 100 µM (inactive) each time. The GI50 in [7], in assay [8], in [9], in assay [10], in [11] and in assay [12] was > 100 µM (inactive) in each case. Moreover, the GI50 in [13], in [14], in [15], in [16], in assay [17] and in assay [18] was > 100 µM (inactive) each time. The GI50 in assay [19] is > 100 µM (inactive).
As for `Cc1c2ccccc2c(C)c2c3c(ccc12)C(=O)C=CC3=O`, the GI50 in [1] is > 83.9 µM (inactive); in [2] it was 37.7 µM (inactive); in assay [3], 22.5 µM (inactive); in assay [4], 19.2 µM (inactive); in assay [5] it was 24.7 µM (inactive); in assay [6], 27.8 µM (inactive). For the same molecule, the GI50 is 32.3 µM (inactive) in [7]; 29 µM (inactive) in [8]; 13 µM (inactive) in [9]; 25.8 µM (inactive) in assay [10]; 30.2 µM (inactive) in [11]; 30.7 µM (inactive) in assay [12]. Also, the GI50 is > 100 µM (inactive) in [13]; > 89.5 µM (inactive) in [14]; 25.7 µM (inactive) in [15]; 28 µM (inactive) in assay [16]; 35.3 µM (inactive) in [17]; 35.6 µM (inactive) in assay [18]. Further, the GI50 in assay [19] is 14.9 µM (inactive).
`CCN(CC)c1ccc2c(c1)Oc1ccc(N(CC)CC)cc1C21Oc2ccccc2-c2c1c1ccccc1n2CC` (configuration not stated): the GI50 in [1] was 3.18 µM (inactive); in assay [2] it was 1.56 µM (inactive); in assay [3], 1.05 µM (active); in [5], 2.7 µM (inactive); in [6] it was 3.68 µM (inactive); in assay [7] it was 2.07 µM (inactive). Also, the GI50 in [8] is 1.73 µM (inactive); in assay [9] it was 1.81 µM (inactive); in assay [10], 3.24 µM (inactive); in assay [11], 6.47 µM (inactive); in assay [12], 2 µM (inactive); in [14] it was 7.74 µM (inactive). The GI50 in [15] is 4.05 µM (inactive); in assay [16], 1.22 µM (inactive); in assay [17], 3.07 µM (inactive); in assay [19] it was 6.18 µM (inactive).
For the molecule `C=CC/N=C1/N=C(CC(=O)OCC)CS1`, the GI50 in [1], in [2], in [3], in assay [4], in assay [5] and in [6] was > 100 µM (inactive) in each case. Further, the GI50 in assay [7], in assay [8], in [9], in [10], in assay [11] and in assay [12] was > 100 µM (inactive) throughout. The GI50 in [13], in assay [14], in assay [15], in assay [16], in [17] and in [18] was > 100 µM (inactive) each time. The GI50 in [19] is > 100 µM (inactive).
`CC(=O)N(C)c1ccc2ncccc2c1[N+](=O)[O-]`: the GI50 in [1], in assay [2], in assay [3], in assay [4], in [5] and in assay [6] was > 100 µM (inactive) throughout. The GI50 in assay [7], in assay [8], in assay [9], in [10], in assay [11] and in assay [12] was > 100 µM (inactive) throughout. In addition, the GI50 in assay [13], in [14], in assay [15], in assay [16], in assay [17] and in assay [18] was > 100 µM (inactive) in each case. Also, the GI50 in assay [19] was > 100 µM (inactive).
As for `COc1ccc(C#CCC(OC2OC(CO)C(O)C(O)C2O)C(O)c2ccc(OC)c(OC)c2)cc1OC` (configuration not stated), the GI50 in [1], in assay [2], in [3], in assay [5], in assay [6] and in assay [7] was > 100 µM (inactive) each time. Also, the GI50 in assay [8] is > 100 µM (inactive); in assay [9], > 100 µM (inactive); in [10], 22.8 µM (inactive); in assay [11] it was 81.3 µM (inactive); in assay [12] it was > 100 µM (inactive); in assay [13], > 100 µM (inactive). The GI50 in [14], in assay [15], in assay [16], in assay [17], in assay [18] and in assay [19] was > 100 µM (inactive) throughout.
For `NNC(=O)N/N=C1\C(=O)N(c2nccs2)C(=O)C(=O)C1c1nc2ccccc2s1` (configuration not stated), the GI50 in assay [1], in assay [3], in assay [4], in assay [5], in assay [6] and in assay [7] was > 100 µM (inactive) throughout. The GI50 in [8], in assay [9], in assay [10], in [11], in [12] and in assay [13] was > 100 µM (inactive) each time. Besides, the GI50 in assay [14], in assay [15], in assay [16], in [17], in assay [18] and in assay [19] was > 100 µM (inactive) each time.
`Cc1ccc(C)c(NC2=NC(=O)C(CC(=O)Nc3ccc(Cl)cc3Cl)S2)c1` (configuration not stated): the GI50 was > 100 µM (inactive) in assay [1]; > 100 µM (inactive) in [2]; > 100 µM (inactive) in assay [4]; > 100 µM (inactive) in assay [5]; > 100 µM (inactive) in assay [6]; 43.8 µM (inactive) in [7]. Further, the GI50 in assay [8] is 70.5 µM (inactive); in assay [9], 31.2 µM (inactive); in assay [10] it was > 100 µM (inactive); in [11] it was > 100 µM (inactive); in assay [12], 77.6 µM (inactive); in assay [13], > 100 µM (inactive). Also, the GI50 in assay [14] was 28.1 µM (inactive); in [15] it was 51.8 µM (inactive); in assay [16] it was > 100 µM (inactive); in assay [17], 46 µM (inactive); in [18], 41.4 µM (inactive); in [19], 66.1 µM (inactive).
For the molecule `Cc1c(Cl)cccc1NC(=O)C(=O)C(C(=O)c1ccccc1-c1ccccc1)C1OC(=O)c2ccccc21` (configuration not stated), the GI50 was 22.4 µM (inactive) in [1]; 15.7 µM (inactive) in assay [2]; 12.5 µM (inactive) in assay [3]; 28.6 µM (inactive) in assay [4]; 19.1 µM (inactive) in [5]; 14.5 µM (inactive) in assay [7]. Further, the GI50 in assay [8] was 12.7 µM (inactive); in assay [9], 12.6 µM (inactive); in assay [10], 18.3 µM (inactive); in [11], 26.8 µM (inactive); in [12], 19 µM (inactive); in assay [13] it was 22.5 µM (inactive). Moreover, the GI50 in assay [14] was 3.94 µM (inactive); in assay [15] it was 16.6 µM (inactive); in [16] it was 33.1 µM (inactive); in assay [17] it was 17.1 µM (inactive); in assay [18], 14.7 µM (inactive); in [19], 25.5 µM (inactive).
On to `COc1ccc(/C=C/c2cc(OC)c(OC)c(OC)c2)cc1`, for which the GI50 in assay [1] is 7.55 µM (inactive); in [2] it was 3.68 µM (inactive); in [3] it was 2.86 µM (inactive); in assay [4] it was 43.7 µM (inactive); in assay [5] it was 2.73 µM (inactive); in assay [6], 13.2 µM (inactive). Besides, the GI50 in [7] was 5.81 µM (inactive); in assay [8], 3.27 µM (inactive); in [9] it was 1.48 µM (inactive); in [10], 5.52 µM (inactive); in assay [11] it was 24.2 µM (inactive); in [12], 18.7 µM (inactive). The GI50 in assay [13] is 1.85 µM (inactive); in [14] it was 5.61 µM (inactive); in assay [15], 11.1 µM (inactive); in [16], 3.2 µM (inactive); in assay [17] it was 3.7 µM (inactive); in [18], 4.29 µM (inactive). For the same molecule, in assay [19], the GI50 is 15.8 µM (inactive).
